Test results as given in ChEMBL document CHEMBL1147009, “Synthesis and SAR studies of diarylpyrrole anticoccidial agents” (Bioorg Med Chem Lett, 2006).
pIC50: −log10 of the molar value.

How the values were obtained:
[1] = biological target: cGMP-dependent protein kinase (Eimeria tenella, UniProt Q8MMZ8); test: Inhibition of Eimeria tenella PKG
Eimeria tenella = test: Anticoccidial activity against Eimeria tenella at 100 ppm; assay type: functional
Eimeria acervulina = test: Anticoccidial activity against Eimeria acervulina at 100 ppm; assay type: functional

Sequence of cGMP-dependent protein kinase (Q8MMZ8 whole entry): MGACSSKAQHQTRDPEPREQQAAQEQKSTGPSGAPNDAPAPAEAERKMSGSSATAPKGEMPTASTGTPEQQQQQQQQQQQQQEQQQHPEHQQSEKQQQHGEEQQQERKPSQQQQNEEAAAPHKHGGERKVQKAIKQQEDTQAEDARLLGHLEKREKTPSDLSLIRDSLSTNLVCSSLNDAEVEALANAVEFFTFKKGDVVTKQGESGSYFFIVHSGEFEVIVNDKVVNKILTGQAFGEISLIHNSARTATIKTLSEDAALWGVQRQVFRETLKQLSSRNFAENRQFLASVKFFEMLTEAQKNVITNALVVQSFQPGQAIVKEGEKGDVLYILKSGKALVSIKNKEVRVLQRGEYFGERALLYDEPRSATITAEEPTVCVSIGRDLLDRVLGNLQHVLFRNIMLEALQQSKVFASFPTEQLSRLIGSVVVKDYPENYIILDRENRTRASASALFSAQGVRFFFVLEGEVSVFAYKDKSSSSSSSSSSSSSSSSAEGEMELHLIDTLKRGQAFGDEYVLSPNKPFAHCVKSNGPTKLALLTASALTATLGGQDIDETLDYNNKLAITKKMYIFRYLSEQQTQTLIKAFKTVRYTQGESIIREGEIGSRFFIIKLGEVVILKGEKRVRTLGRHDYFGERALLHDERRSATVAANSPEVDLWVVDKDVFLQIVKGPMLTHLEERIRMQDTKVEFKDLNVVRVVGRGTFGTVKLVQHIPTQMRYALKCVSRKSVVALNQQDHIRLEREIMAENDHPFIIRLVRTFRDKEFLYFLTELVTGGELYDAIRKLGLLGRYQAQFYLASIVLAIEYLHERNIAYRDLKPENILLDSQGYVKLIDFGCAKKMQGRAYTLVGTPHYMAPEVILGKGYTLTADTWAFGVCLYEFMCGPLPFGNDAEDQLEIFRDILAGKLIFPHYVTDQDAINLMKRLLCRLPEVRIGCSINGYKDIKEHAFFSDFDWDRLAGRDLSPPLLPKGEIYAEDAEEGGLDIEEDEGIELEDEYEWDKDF

pIC50 [1] | Compound | Activity (Eimeria tenella) [%] | Activity (Eimeria acervulina) [%]
8.68 | OCCN1CCCC1c1cc(-c2ccncc2)c(-c2ccc(F)cc2)[nH]1 (centres undefined) | <50 | <50
9.46 | CN(C)Cc1cc(-c2ccncc2)c(-c2ccc(F)cc2)[nH]1 | – | < 50
6.37 | CCOC(=O)c1cc(-c2ccncc2)c(-c2ccc(F)cc2)[nH]1 | <50 | <50
8.89 | Fc1ccc(-c2[nH]c(CN3CCC3)cc2-c2ccncc2)cc1 | <50 | <50
9.15 | CC(C)C(c1cc(-c2ccncc2)c(-c2ccc(F)cc2)[nH]1)N(C)C (centres undefined) | 50 | 80
8.51 | Fc1ccc(-c2[nH]c(C3CCCN3)cc2-c2ccncc2)cc1 (centres undefined) | 50 | <50
8.12 | Fc1ccc(-c2[nH]c(CN3CCOCC3)cc2-c2ccncc2)cc1 | <50 | <50
8.82 | O=S(=O)(c1ccc(F)cc1)N1CCCC1c1cc(-c2ccncc2)c(-c2ccc(F)cc2)[nH]1 (centres undefined) | <50 | <50
8.64 | CNC(=O)N1CCCC1c1cc(-c2ccncc2)c(-c2ccc(F)cc2)[nH]1 (centres undefined) | <50 | <50
8.48 | C[C@@H](O)CN1CCCC1c1cc(-c2ccncc2)c(-c2ccc(F)cc2)[nH]1 (some centres undefined) | <50 | <50
8.60 | CN(C)CCc1cc(-c2ccncc2)c(-c2ccc(F)cc2)[nH]1 | 50 | 50
8.57 | CN1CCCCC1c1cc(-c2ccncc2)c(-c2ccc(F)cc2)[nH]1 (centres undefined) | <50 | <50
9.00 | CN1CCCC1c1cc(-c2ccncc2)c(-c2ccc(F)cc2)[nH]1 (centres undefined) | <50 | 80
7.89 | OCC1CCN(Cc2cc(-c3ccncc3)c(-c3ccc(F)cc3)[nH]2)CC1 | <50 | <50
8.57 | O=C(OCc1ccccc1)N1CCCC1c1cc(-c2ccncc2)c(-c2ccc(F)cc2)[nH]1 (centres undefined) | <50 | <50
8.39 | CN(C)C(=O)Cc1cc(-c2ccncc2)c(-c2ccc(F)cc2)[nH]1 | <50 | <50
< 6.00 | O=C(O)Cc1cc(-c2ccncc2)c(-c2ccc(F)cc2)[nH]1 | <50 | <50
8.39 | CCN(C)CCCc1cc(-c2ccncc2)c(-c2ccc(F)cc2)[nH]1 | <50 | <50
8.55 | C[C@H](O)CN1CCCC1c1cc(-c2ccncc2)c(-c2ccc(F)cc2)[nH]1 (some centres undefined) | 80 | <50
8.43 | Fc1ccc(-c2[nH]c(CN3CCCCC3)cc2-c2ccncc2)cc1 | <50 | <50
